Literature values, collected in paper PMC9187593 (Bioorganic chemistry, 2022).

System: ICR mice
Conditions: positive controls

SMILES | Effect on IP acid-stimulated stretching
COc1ccc2c3c1O[C@H]1C(=O)CC[C@@]4(O)[C@@H](C2)N(C)CC[C@]314 [oxycodone] | dose-dependent and significant decrease in IP acid-stimulated stretching
CC(C(=O)O)c1cccc(C(=O)c2ccccc2)c1 (centres unmarked) [ketoprofen] | dose-dependent and significant decrease in IP acid-stimulated stretching
